Test [1] deals with LNCaP α2,3(O)ST. Put plainly: Sialyltransferase assay with LNCaP cell extract. Format: biochemical, human. The note with it: Table I; acceptor 7.5 mM; 100% = 30930 CPM (3-O-MeGalβ1,4GlcNAcβ1,6(Galβ1,3)GalNAcα-O-Bn). The method in brief:
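LNCaP Triton X-100 extract (5 mg protein/ml; 0.1M Tris-maleate pH6.3) incubated with acceptor (typically 7.5 mM) and CMP-[9-3H]NeuAc (typically 0.2 μCi) in 0.1M Na cacodylate pH6.0, 2 h at 37 °C, in duplicate. Radioactive product separated on Dowex-1-formate, Sep-Pak C18 or Biogel P2 and counted by scintillation; blank without acceptor subtracted.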

Test [2] deals with T1, Rat recombinant α2,3(N)ST (Rattus norvegicus, UniProt Q02734).
T1 construct: purchased Calbiochem
T1 sequence (Q02734 29-374 limits assumed): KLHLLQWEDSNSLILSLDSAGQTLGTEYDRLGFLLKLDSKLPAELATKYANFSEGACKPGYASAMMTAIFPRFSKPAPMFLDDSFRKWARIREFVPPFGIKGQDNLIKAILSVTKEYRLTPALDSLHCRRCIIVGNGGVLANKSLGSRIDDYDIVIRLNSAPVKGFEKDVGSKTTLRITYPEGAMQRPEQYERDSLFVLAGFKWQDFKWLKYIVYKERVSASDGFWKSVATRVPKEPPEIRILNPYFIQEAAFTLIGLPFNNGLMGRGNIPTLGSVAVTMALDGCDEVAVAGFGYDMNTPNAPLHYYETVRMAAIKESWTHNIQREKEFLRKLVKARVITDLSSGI
The experiment in a line: Sialyltransferase assay with cloned α2,3(N)ST. Format: biochemical. The note with it: Table I; acceptor 7.5 mM; 100% = 29520 CPM (Galβ1,4GlcNAcβ-O—Al). The procedure, abridged: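 Each rat recombinant sialyltransferase incubated 2 h at 37° C in 0.1M NaCacodylate pH6.0 with acceptor (typically 7.5 mM) and CMP-[9-³H]NeuAc (typically 0.2 μci; 20 μci/nmol), in duplicate, acceptor-free blank subtracted. Radiolabelled product separated on Dowex-1-Formate or Sep-Pak C18 and counted by liquid scintillation.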

Values joined by “and” are separate entries in the source; they are usually repeats but may differ in a detail not shown here. Identical values can stand only once.

For the molecule `C=CCO[C@H]1O[C@H](CO)[C@H](O)[C@H](O[C@@H]2O[C@H](CO)[C@H](O)[C@H](O)[C@H]2O)[C@H]1NC(C)=O` [Galβ1,3GalNAcα-O—Al], the “Sialyltransferase activity (%) LNCaP α2,3(O)ST” value in test [1] was found to be 34.4%. In addition, the “Sialyltransferase activity (%) Cloned α2,3(N)ST” value in test [2] came out at 24.1%.
`CO[C@H]1[C@H](O[C@H]2[C@H](O)[C@@H](CO)OC(O)[C@@H]2NC(C)=O)O[C@H](CO)[C@H](O)[C@@H]1O` (some centres unmarked) [2-O-MeGalβ1,3GlcNAc]: in test [2], the “Sialyltransferase activity (%) Cloned α2,3(N)ST” value came to 115.3%.
With `CO[C@H]1O[C@H](CO)[C@H](O)[C@H](O[C@@H]2O[C@H](CO)[C@H](O)[C@H](O[C@@H]3O[C@H](C)[C@H](O)[C@H](O)[C@H]3O)[C@H]2NC(C)=O)[C@H]1O` [D-Fucβ1,3GalNAcβ1,3Galα-O-Me], in test [1], the “Sialyltransferase activity (%) LNCaP α2,3(O)ST” value came out at 9.6%. Also, the “Sialyltransferase activity (%) Cloned α2,3(N)ST” value in test [2] was 3.1%.
On to `CO[C@H]1O[C@H](CO)[C@H](O)[C@H](O[C@@H]2O[C@H](CO)[C@H](O)[C@H](O[C@@H]3O[C@H](CO)[C@H](O)[C@H](O)[C@H]3O)[C@H]2NC(C)=O)[C@H]1O` [Galβ1,3GalNAcβ1,3Galα-O-Me], for which the “Sialyltransferase activity (%) LNCaP α2,3(O)ST” value in test [1] is reported as 34.3%. For the same molecule, the “Sialyltransferase activity (%) Cloned α2,3(N)ST” value in test [2] was 106.8% and 106.8^20%.
With `CO[C@H]1[C@H](O[C@H]2[C@H](O)[C@@H](NC(C)=O)C(O)O[C@@H]2CO)O[C@H](CO)[C@H](O)[C@@H]1O` (some centres unmarked) [2-O-MeGalβ1,4GlcNAc], in test [2], the “Sialyltransferase activity (%) Cloned α2,3(N)ST” value is reported as 60.0%.

The values are drawn from patent US20100221763A1, “Specific Acceptors for Transferases to Saccharides and Method for Obtaining and Using Same” (Health Research, Inc, priority 2005, published 2010).
